Results reported in patent US8022061B2, “N-aryl pyrazole compounds, compositions, and methods for their use” (Amgen Inc., priority 2006, dated 2011).

These compounds were tested on ob/ob mice (assay: Increase of circulating insulin concentrations in treated ob/ob mice). Details: male ob/ob mice, dose 3 mg/kg p.o., 10 minutes after dosing, relative to control group.
Format: in vivo
Experimental: The results presented below exemplify that administration of the compounds as provided herein to an art-recognized animal model of human diabetes can lead to increased circulating insulin concentrations in the animal model.
Male ob/ob mice were weighed and bled from tail vein, and blood glucose levels were determined with a glucometer. Animals were placed into control and treatment groups having similar averages of glucose levels and body weights. In the morning of the following day, animals were dosed with vehicle (control group) or test article (5 ml/kg, p.o.). Blood samples were collected just before and 10 minutes after dosing, and the samples were assayed for insulin and glucose concentrations.
Table 1 provides exemplary data showing the increase of circulating insulin concentrations (expressed as ng/ml) in treated mice relative to control group at 10 minutes after dosing the treated mice. Concentrations of the exemplary compound tested in the mice are provided in the righthand column.

For CCCCc1c(C(=O)NC2CCCn3cncc32)cnn1-c1ncc(C)c(-c2cccs2)n1 (stereo not shown) [5-Butyl-1-[5-methyl-4-(2-thienyl)pyrimidin-2-yl]-N-(5,6,7,8-tetrahydroimidazo[1,5-a]pyridin-8-yl)-1H-pyrazole-4-carboxamide], the “Increase in Insulin” value was 1.4 ng/mL.

Same assay, conditions: male ob/ob mice, dose 10 mg/kg p.o., 10 minutes after dosing, relative to control group

Point of comparison: CCCCc1c(C(=O)NCCn2cncc2C(=O)OC)cnn1-c1ncc(C)c(-c2cccs2)n1 [Methyl 1-{2-[({5-butyl-1-[5-methyl-4-(2-thienyl)pyrimidin-2-yl]-1H-pyrazol-4-yl}carbonyl)amino]ethyl}-1H-imidazole-5-carboxylate], “Increase in Insulin” value 6.6 ng/mL. Against it:
- CCCCc1c(C(=O)NCc2cnc3ccccn23)cnn1-c1ncc(Br)c(NC2CCC2)n1 [1-[5-Bromo-4-(cyclobutylamino)pyrimidin-2-yl]-5-butyl-N-(imidazo[1,2-a]pyridin-3-ylmethyl)-1H-pyrazole-4-carboxamide] — within 1.5-fold, 7.2 ng/mL
- CCCc1c(C(=O)NC2CCCc3cnccc32)cnn1-c1ncc(C)c(-c2cccs2)n1 (stereo not shown) [1-[5-Methyl-4-(2-thienyl)pyrimidin-2-yl]-5-propyl-N-(5,6,7,8-tetrahydroisoquinolin-5-yl)-1H-pyrazole-4-carboxamide] — within 1.5-fold, 8.8 ng/mL
- CCCCc1c(C(=O)NCCn2cncc2C(=O)O)cnn1-c1ncc(C)c(-c2cccs2)n1 [1-{2-[({5-Butyl-1-[5-methyl-4-(2-thienyl)pyrimidin-2-yl]-1H-pyrazol-4-yl}carbonyl)amino]ethyl}-1H-imidazole-5-carboxylic acid] — within 1.5-fold, 6.1 ng/mL
- CCOCc1c(C(=O)NC(C)c2ccncc2)cnn1-c1ncc(C)c(-c2cccs2)n1 (stereo not shown) [5-(Ethoxymethyl)-1-[5-methyl-4-(2-thienyl)pyrimidin-2-yl]-N-(1-pyridin-4-ylethyl)-1H-pyrazole-4-carboxamide] — within 1.5-fold, 6.7 ng/mL
- CCCCc1c(C(=O)NC(CC)c2ccncc2)cnn1-c1ncc(C)c(-c2cccs2)n1 (stereo not shown) [5-Butyl-1-[5-methyl-4-(2-thienyl)pyrimidin-2-yl]-N-(1-pyridin-4-ylpropyl)-1H-pyrazole-4-carboxamide] — 2.1-fold lower, 3.1 ng/mL
- CCCCc1c(C(=O)Nc2cccc3ncn(C)c23)cnn1-c1ncc(C)c(-c2cccs2)n1 [5-Butyl-N-(1-methyl-1H-benzo[d]imidazol-7-yl)-1-(5-methyl-4-(thiophen-2-yl)pyrimidin-2-yl)-1H-pyrazole-4-carboxamide] — 1.5-fold lower, 4.3 ng/mL
- CCCCc1c(C(=O)NC(CO)c2ccncc2)cnn1-c1ncc(C)c(-c2cccs2)n1 (stereo not shown) [5-Butyl-N-(2-hydroxy-1-pyridin-4-ylethyl)-1-[5-methyl-4-(2-thienyl)pyrimidin-2-yl]-1H-pyrazole-4-carboxamide] — 1.5-fold lower, 4.3 ng/mL
- CCCCc1c(C(=O)NC2CCn3cncc32)cnn1-c1ncc(C)c(-c2cccs2)n1 (stereo not shown) [5-Butyl-N-(6,7-dihydro-5H-pyrrolo[1,2-c]imidazol-7-yl)-1-[5-methyl-4-(2-thienyl)pyrimidin-2-yl]-1H-pyrazole-4-carboxamide] — 3-fold lower, 2.2 ng/mL
- CCCCc1c(C(=O)NCc2cnc3ccccn23)cnn1-c1ncc(C)c(-c2cccs2)n1 [5-Butyl-N-(imidazo[1,2-a]pyridin-3-ylmethyl)-1-[5-methyl-4-(2-thienyl)pyrimidin-2-yl]-1H-pyrazole-4-carboxamide] — within 1.5-fold, 8.5 ng/mL
- CCCCc1c(C(=O)NCc2c(C)ncn2CC(=O)N(C)C)cnn1-c1ncc(C)c(-c2cccs2)n1 [5-Butyl-N-({1-[2-(dimethylamino)-2-oxoethyl]-4-methyl-1H-imidazol-5-yl}methyl)-1-[5-methyl-4-(2-thienyl)pyrimidin-2-yl]-1H-pyrazole-4-carboxamide] — within 1.5-fold, 4.7 ng/mL
- CCCCc1c(C(=O)NCc2c(C)ncn2CC(=O)NC)cnn1-c1ncc(C)c(-c2cccs2)n1 [5-Butyl-N-({4-methyl-1-[2-(methylamino)-2-oxoethyl]-1H-imidazol-5-yl}methyl)-1-[5-methyl-4-(2-thienyl)pyrimidin-2-yl]-1H-pyrazole-4-carboxamide] — within 1.5-fold, 9 ng/mL
- CCCCc1c(C(=O)NC(C)c2cncn2C)cnn1-c1ncc(C)c(-c2cccs2)n1 (stereo not shown) [5-Butyl-N-[1-(1-methyl-1H-imidazol-5-yl)ethyl]-1-[5-methyl-4-(2-thienyl)pyrimidin-2-yl]-1H-pyrazole-4-carboxamide] — within 1.5-fold, 6.4 ng/mL
- CCCCc1c(C(=O)NCCn2ccnc2)cnn1-c1ncc(C)c(-c2cccs2)n1 [5-Butyl-N-[2-(1H-imidazol-1-yl)ethyl]-1-[5-methyl-4-(2-thienyl)pyrimidin-2-yl]-1H-pyrazole-4-carboxamide] — 2.3-fold lower, 2.9 ng/mL
- CCCCc1c(C(=O)NC(CO)c2cncn2C)cnn1-c1ncc(C)c(-c2cccs2)n1 (stereo not shown) [5-Butyl-N-[2-hydroxy-1-(1-methyl-1H-imidazol-5-yl)ethyl]-1-[5-methyl-4-(2-thienyl)pyrimidin-2-yl]-1H-pyrazole-4-carboxamide] — within 1.5-fold, 5.2 ng/mL
- CCCCc1c(C(=O)NCc2c(C)ncn2CC(=O)O)cnn1-c1ncc(Br)c(NC2CCC2)n1 [(5-{[({1-[5-Bromo-4-(cyclobutylamino)pyrimidin-2-yl]-5-butyl-1H-pyrazol-4-yl}carbonyl)amino]methyl}-4-methyl-1H-imidazol-1-yl)acetic acid] — 3.9-fold lower, 1.7 ng/mL
- CCCCc1c(C(=O)NCc2cncn2CC(=O)O)cnn1-c1ncc(C)c(-c2cccs2)n1 [(5-{[({5-Butyl-1-[5-methyl-4-(2-thienyl)pyrimidin-2-yl]-1H-pyrazol-4-yl}carbonyl)amino]methyl}-1H-imidazol-1-yl)acetic acid] — 1.7-fold lower, 3.8 ng/mL
- CCCCc1c(C(=O)NCc2cncn2CC(=O)OC)cnn1-c1ncc(C)c(-c2cccs2)n1 [Methyl (5-{[({5-butyl-1-[5-methyl-4-(2-thienyl)pyrimidin-2-yl]-1H-pyrazol-4-yl}carbonyl)amino]methyl}-1H-imidazol-1-yl)acetate] — 1.5-fold lower, 4.3 ng/mL
- CCCCc1c(C(=O)Nc2cccc3nc[nH]c23)cnn1-c1ncc(C)c(-c2cccs2)n1 [N-1H-Benzimidazol-7-yl-5-butyl-1-[5-methyl-4-(2-thienyl)pyrimidin-2-yl]-1H-pyrazole-4-carboxamide] — 7.3-fold lower, 0.9 ng/mL
- COCc1c(C(=O)NCc2cnc3ccccn23)cnn1-c1ncc(C)c(-c2cccs2)n1 [N-(Imidazo[1,2-a]pyridin-3-ylmethyl)-5-(methoxymethyl)-1-[5-methyl-4-(2-thienyl)pyrimidin-2-yl]-1H-pyrazole-4-carboxamide] — within 1.5-fold, 4.4 ng/mL
- CCCCc1c(C(=O)N[C@@H](Cc2c[nH]cn2)C(=O)O)cnn1-c1ncc(C)c(-c2cccs2)n1 [N-({5-Butyl-1-[5-methyl-4-(2-thienyl)pyrimidin-2-yl]-1H-pyrazol-4-yl}carbonyl)-L-histidine] — within 1.5-fold, 4.5 ng/mL
- CCCc1c(C(=O)NCCc2cncn2C)cnn1-c1ncc(C)c(-c2cccs2)n1 [N-[2-(1-Methyl-1H-imidazol-5-yl)ethyl]-1-[5-methyl-4-(2-thienyl)pyrimidin-2-yl]-5-propyl-1H-pyrazole-4-carboxamide] — within 1.5-fold, 9.5 ng/mL
- CCCc1c(C(=O)NC(CO)c2cncn2C)cnn1-c1ncc(C)c(-c2cccs2)n1 (stereo not shown) [N-[2-Hydroxy-1-(1-methyl-1H-imidazol-5-yl)ethyl]-1-[5-methyl-4-(2-thienyl)pyrimidin-2-yl]-5-propyl-1H-pyrazole-4-carboxamide] — 2.1-fold lower, 3.1 ng/mL
- CCCCc1c(C(=O)NCc2c(C)ncn2CC(N)=O)cnn1-c1ncc(C)c(-c2cccs2)n1 [N-{[1-(2-Amino-2-oxoethyl)-4-methyl-1H-imidazol-5-yl]methyl}-5-butyl-1-[5-methyl-4-(2-thienyl)pyrimidin-2-yl]-1H-pyrazole-4-carboxamide] — 1.6-fold lower, 4 ng/mL

Same assay, conditions: male ob/ob mice, dose 30 mg/kg p.o., 10 minutes after dosing, relative to control group

Point of comparison: CCCCc1c(C(=O)NC(C)(C)c2ccncc2)cnn1-c1ncc(C)c(-c2cccs2)n1 [5-Butyl-N-(1-methyl-1-pyridin-4-ylethyl)-1-[5-methyl-4-(2-thienyl)pyrimidin-2-yl]-1H-pyrazole-4-carboxamide], “Increase in Insulin” value 4.6 ng/mL. Against it:
- CCCCc1c(C(=O)NCc2ccncc2)cnn1-c1ncc(C)c(-c2cccs2)n1 [5-Butyl-1-[5-methyl-4-(2-thienyl)pyrimidin-2-yl]-N-(pyridin-4-ylmethyl)-1H-pyrazole-4-carboxamide] — within 1.5-fold, 4.1 ng/mL
- CCCc1c(C(=O)NCc2cncn2C)cnn1-c1ncc(C)c(-c2cccs2)n1 [N-[(1-Methyl-1H-imidazol-5-yl)methyl]-1-[5-methyl-4-(2-thienyl)pyrimidin-2-yl]-5-propyl-1H-pyrazole-4-carboxamide] — 6.2-fold higher, 28.5 ng/mL
